According to publication PMC12136037, “Type II kinase inhibitors that target Parkinson’s disease–associated LRRK2” (Science Advances, 2025):

Experiments:
Experiment in all cases: 33PanQinase kinome-wide selectivity profile (Reaction Biology)
Assay type in all cases: biochemical
350 wild-type kinases [1] = molecular target: T1, 350 wild-type kinases (Homo sapiens, UniProt O14757); details: kinase CHK1, ATP 1 µM, singlicate
T1 construct: purchased Reaction Biology (assay service)
Experimental: (§1) Compound RN341 was tested at two concentrations of 1 and 10 μM against a panel of 350 wild-type kinases in the ^33PanQinase assay. The assay was performed by Reaction Biology (www.reactionbiology.com/services/kinase-assays/kinase-panel-screening/).

350 wild-type kinases [2] = molecular target: T2, 350 wild-type kinases (Homo sapiens, UniProt Q9BWU1); details: kinase CDK19/CycC, ATP 3 µM, singlicate
T2 construct: purchased Reaction Biology (assay service)
Experimental: as §1

350 wild-type kinases [3] = molecular target: T3, 350 wild-type kinases (Homo sapiens, UniProt Q14004); details: kinase CDK13/CycK, ATP 0,1 µM, singlicate
T3 construct: purchased Reaction Biology (assay service)
Experimental: as §1

350 wild-type kinases [4] = molecular target: T4, 350 wild-type kinases (Homo sapiens, UniProt P37023); details: kinase ACVRL1, ATP 1 µM, singlicate
T4 construct: purchased Reaction Biology (assay service)
Experimental: as §1

350 wild-type kinases [5] = molecular target: T5, 350 wild-type kinases (Homo sapiens, UniProt Q8N5S9); details: kinase CAMKK1, ATP 3 µM, singlicate
T5 construct: purchased Reaction Biology (assay service)
Experimental: as §1

350 wild-type kinases [6] = molecular target: T6, 350 wild-type kinases (Homo sapiens, UniProt P68400); details: kinase CK2alpha1, ATP 0,1 µM, singlicate
T6 construct: purchased Reaction Biology (assay service)
Experimental: as §1

350 wild-type kinases [7] = molecular target: T7, 350 wild-type kinases (Homo sapiens, UniProt Q8IWQ3); details: kinase BRSK2, ATP 1 µM, singlicate
T7 construct: purchased Reaction Biology (assay service)
Experimental: as §1

350 wild-type kinases [8] = molecular target: T8, 350 wild-type kinases (Homo sapiens, UniProt Q07912); details: kinase ACK1, ATP 1 µM, singlicate
T8 construct: purchased Reaction Biology (assay service)
Experimental: as §1

350 wild-type kinases [9] = molecular target: T9, 350 wild-type kinases (Homo sapiens, UniProt P48730); details: kinase CK1delta, ATP 0,3 µM, singlicate
T9 construct: purchased Reaction Biology (assay service)
Experimental: as §1

350 wild-type kinases [10] = molecular target: T10, 350 wild-type kinases (Homo sapiens, UniProt Q99683); details: kinase ASK1, ATP 3 µM, singlicate
T10 construct: purchased Reaction Biology (assay service)
Experimental: as §1

350 wild-type kinases [11] = molecular target: T11, 350 wild-type kinases (Homo sapiens, UniProt Q5VT25); details: kinase CDC42BPA, ATP 0,1 µM, singlicate
T11 construct: purchased Reaction Biology (assay service)
Experimental: as §1

350 wild-type kinases [12] = molecular target: T12, 350 wild-type kinases (Homo sapiens, UniProt Q9UQB9); details: kinase AuroraC, ATP 3 µM, singlicate
T12 construct: purchased Reaction Biology (assay service)
Experimental: as §1

350 wild-type kinases [13] = molecular target: T13, 350 wild-type kinases (Homo sapiens, UniProt P31751); details: kinase AKT2, ATP 10 µM, singlicate
T13 construct: purchased Reaction Biology (assay service)
Experimental: as §1

350 wild-type kinases [14] = molecular target: T14, 350 wild-type kinases (Homo sapiens, UniProt Q16566); details: kinase CAMK4, ATP 1 µM, singlicate
T14 construct: purchased Reaction Biology (assay service)
Experimental: as §1

350 wild-type kinases [15] = molecular target: T15, 350 wild-type kinases (Homo sapiens, UniProt P33981); details: 1 μM, TTK; read-out: TTK activity, % of control
T15 construct: purchased Reaction Biology (assay service)
Experimental: as §1

350 wild-type kinases [16] = molecular target: T16, 350 wild-type kinases (Homo sapiens, UniProt P24941); details: singlicate; for Residual activity (% of control), CDK2/CycA2: kinase CDK2/CycA2, ATP 0,3 µM; for Residual activity (% of control), CDK2/CycD1: kinase CDK2/CycD1, ATP 3 µM; for Residual activity (% of control), CDK2/CycE1: kinase CDK2/CycE1, ATP 1 µM
T16 construct: purchased Reaction Biology (assay service)
Experimental: as §1

350 wild-type kinases [17] = molecular target: T17, 350 wild-type kinases (Homo sapiens, UniProt O43293); details: kinase DAPK3, ATP 0,1 µM, singlicate
T17 construct: purchased Reaction Biology (assay service)
Experimental: as §1

350 wild-type kinases [18] = molecular target: T18, 350 wild-type kinases (Homo sapiens, UniProt O60285); details: kinase ARK5, ATP 3 µM, singlicate
T18 construct: purchased Reaction Biology (assay service)
Experimental: as §1

350 wild-type kinases [19] = molecular target: T19, 350 wild-type kinases (Homo sapiens, UniProt P51813); details: kinase BMX, ATP 1 µM, singlicate
T19 construct: purchased Reaction Biology (assay service)
Experimental: as §1

350 wild-type kinases [20] = molecular target: T20, 350 wild-type kinases (Homo sapiens, UniProt O60566); details: kinase BUB1B, ATP 0,3 µM, singlicate
T20 construct: purchased Reaction Biology (assay service)
Experimental: as §1

350 wild-type kinases [21] = molecular target: T21, 350 wild-type kinases (Homo sapiens, UniProt Q9UM73); details: kinase ALK, ATP 0,3 µM, singlicate
T21 construct: purchased Reaction Biology (assay service)
Experimental: as §1

350 wild-type kinases [22] = molecular target: T22, 350 wild-type kinases (Homo sapiens, UniProt P15056); details: kinase BRAF, ATP 1 µM, singlicate
T22 construct: purchased Reaction Biology (assay service)
Experimental: as §1

350 wild-type kinases [23] = molecular target: T23, 350 wild-type kinases (Homo sapiens, UniProt P30530); details: kinase AXL, ATP 0,3 µM, singlicate
T23 construct: purchased Reaction Biology (assay service)
Experimental: as §1

350 wild-type kinases [24] = molecular target: T24, 350 wild-type kinases (Homo sapiens, UniProt Q9NYV4); details: kinase CDK12/CycK, ATP 0,3 µM, singlicate
T24 construct: purchased Reaction Biology (assay service)
Experimental: as §1

T17 sequence (O43293 whole entry): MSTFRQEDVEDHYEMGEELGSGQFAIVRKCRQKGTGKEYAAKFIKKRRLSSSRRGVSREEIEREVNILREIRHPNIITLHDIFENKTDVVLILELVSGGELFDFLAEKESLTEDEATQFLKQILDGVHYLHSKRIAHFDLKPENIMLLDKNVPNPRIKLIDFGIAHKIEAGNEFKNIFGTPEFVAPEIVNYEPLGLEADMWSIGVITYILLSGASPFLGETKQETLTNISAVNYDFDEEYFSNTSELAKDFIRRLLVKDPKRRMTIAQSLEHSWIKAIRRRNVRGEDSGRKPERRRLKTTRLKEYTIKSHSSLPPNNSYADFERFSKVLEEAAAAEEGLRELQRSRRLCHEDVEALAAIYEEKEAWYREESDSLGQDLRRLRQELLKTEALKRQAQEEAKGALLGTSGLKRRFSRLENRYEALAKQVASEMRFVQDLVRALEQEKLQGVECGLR
T19 sequence (P51813 whole entry): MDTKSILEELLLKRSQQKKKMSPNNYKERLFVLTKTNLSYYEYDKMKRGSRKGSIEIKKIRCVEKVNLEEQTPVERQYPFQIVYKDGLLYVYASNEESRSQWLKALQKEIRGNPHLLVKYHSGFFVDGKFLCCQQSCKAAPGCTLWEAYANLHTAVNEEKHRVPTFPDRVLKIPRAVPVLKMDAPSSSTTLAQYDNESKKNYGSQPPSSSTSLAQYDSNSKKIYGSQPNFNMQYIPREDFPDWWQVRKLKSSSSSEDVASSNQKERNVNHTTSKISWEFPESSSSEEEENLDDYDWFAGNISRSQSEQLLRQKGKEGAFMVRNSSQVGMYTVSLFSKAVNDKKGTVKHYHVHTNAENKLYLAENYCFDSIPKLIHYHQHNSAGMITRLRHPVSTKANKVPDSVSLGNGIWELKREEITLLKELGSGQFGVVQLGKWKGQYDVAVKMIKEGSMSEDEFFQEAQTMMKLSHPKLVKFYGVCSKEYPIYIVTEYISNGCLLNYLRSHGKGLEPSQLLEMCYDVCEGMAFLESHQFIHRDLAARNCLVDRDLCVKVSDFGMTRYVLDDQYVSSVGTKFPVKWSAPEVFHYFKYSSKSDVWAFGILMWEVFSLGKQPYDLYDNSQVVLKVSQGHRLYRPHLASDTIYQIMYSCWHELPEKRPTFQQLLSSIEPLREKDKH
T4 sequence (P37023 22-503): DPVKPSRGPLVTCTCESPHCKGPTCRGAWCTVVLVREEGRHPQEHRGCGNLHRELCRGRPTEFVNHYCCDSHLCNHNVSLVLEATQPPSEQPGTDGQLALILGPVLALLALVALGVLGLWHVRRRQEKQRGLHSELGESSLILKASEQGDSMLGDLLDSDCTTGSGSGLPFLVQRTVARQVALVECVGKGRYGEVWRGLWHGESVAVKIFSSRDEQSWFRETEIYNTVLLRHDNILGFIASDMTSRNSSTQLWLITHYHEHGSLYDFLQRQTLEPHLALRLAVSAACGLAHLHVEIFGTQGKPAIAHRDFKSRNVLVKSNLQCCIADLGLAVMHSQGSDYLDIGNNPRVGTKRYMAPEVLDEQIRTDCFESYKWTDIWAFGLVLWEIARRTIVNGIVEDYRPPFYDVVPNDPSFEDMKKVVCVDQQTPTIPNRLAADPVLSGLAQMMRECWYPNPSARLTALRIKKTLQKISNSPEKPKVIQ
T5 sequence (Q8N5S9 whole entry): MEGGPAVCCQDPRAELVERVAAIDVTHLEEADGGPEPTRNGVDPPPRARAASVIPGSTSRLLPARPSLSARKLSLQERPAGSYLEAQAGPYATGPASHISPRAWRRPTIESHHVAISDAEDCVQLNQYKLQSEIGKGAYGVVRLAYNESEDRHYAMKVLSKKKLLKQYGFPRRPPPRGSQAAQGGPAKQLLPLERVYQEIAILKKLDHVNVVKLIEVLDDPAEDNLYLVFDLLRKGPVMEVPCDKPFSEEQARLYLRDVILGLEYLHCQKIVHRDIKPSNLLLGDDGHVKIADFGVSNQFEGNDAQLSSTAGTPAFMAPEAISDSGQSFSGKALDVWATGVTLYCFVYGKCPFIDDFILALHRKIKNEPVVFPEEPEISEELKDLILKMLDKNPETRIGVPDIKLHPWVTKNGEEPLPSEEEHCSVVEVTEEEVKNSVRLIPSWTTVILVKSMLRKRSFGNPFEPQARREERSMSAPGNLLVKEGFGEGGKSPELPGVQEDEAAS
T11 sequence (Q5VT25 whole entry): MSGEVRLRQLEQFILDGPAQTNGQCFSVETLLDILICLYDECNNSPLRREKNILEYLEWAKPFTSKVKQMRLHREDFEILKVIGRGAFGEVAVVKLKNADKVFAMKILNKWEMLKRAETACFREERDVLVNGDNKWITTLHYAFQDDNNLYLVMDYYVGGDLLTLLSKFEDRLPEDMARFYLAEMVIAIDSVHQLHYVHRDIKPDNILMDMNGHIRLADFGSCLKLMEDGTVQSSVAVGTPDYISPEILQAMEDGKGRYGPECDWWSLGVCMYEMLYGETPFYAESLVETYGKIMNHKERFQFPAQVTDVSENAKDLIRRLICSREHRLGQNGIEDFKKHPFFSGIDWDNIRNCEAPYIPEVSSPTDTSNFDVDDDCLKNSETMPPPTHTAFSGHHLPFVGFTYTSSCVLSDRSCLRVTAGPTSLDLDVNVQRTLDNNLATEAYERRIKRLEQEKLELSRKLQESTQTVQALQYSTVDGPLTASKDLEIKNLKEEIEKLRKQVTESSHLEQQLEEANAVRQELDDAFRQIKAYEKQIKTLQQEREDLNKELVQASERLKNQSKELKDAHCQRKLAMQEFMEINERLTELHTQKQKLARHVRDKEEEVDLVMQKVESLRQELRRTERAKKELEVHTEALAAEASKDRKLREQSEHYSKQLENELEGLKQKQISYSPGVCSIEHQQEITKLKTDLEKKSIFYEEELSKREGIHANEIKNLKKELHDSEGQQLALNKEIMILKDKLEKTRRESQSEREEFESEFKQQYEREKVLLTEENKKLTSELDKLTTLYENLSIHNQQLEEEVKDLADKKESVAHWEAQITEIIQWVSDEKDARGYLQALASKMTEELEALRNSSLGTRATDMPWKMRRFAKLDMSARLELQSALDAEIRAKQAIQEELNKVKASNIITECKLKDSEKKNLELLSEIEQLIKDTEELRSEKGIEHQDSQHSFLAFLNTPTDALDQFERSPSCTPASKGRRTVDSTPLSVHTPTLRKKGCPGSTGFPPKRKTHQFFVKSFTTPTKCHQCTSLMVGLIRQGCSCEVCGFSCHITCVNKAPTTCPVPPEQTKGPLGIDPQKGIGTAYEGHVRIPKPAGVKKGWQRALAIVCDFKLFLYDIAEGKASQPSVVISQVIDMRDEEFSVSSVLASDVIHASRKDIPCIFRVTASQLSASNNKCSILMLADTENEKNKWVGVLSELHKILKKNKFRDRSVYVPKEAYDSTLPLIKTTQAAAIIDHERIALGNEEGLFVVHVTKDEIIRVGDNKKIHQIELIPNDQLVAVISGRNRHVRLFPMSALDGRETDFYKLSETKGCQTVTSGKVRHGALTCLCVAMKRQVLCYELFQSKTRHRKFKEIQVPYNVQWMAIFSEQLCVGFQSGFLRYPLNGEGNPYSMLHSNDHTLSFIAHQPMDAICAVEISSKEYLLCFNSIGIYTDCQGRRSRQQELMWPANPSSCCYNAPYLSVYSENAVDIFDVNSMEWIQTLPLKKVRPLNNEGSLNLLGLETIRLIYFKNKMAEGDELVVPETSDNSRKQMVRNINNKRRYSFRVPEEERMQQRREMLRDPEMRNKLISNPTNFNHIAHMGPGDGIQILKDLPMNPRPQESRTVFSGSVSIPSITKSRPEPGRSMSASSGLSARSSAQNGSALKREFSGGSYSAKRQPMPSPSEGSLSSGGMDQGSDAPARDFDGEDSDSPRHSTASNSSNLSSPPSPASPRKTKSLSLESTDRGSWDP
T23 sequence (P30530 26-894): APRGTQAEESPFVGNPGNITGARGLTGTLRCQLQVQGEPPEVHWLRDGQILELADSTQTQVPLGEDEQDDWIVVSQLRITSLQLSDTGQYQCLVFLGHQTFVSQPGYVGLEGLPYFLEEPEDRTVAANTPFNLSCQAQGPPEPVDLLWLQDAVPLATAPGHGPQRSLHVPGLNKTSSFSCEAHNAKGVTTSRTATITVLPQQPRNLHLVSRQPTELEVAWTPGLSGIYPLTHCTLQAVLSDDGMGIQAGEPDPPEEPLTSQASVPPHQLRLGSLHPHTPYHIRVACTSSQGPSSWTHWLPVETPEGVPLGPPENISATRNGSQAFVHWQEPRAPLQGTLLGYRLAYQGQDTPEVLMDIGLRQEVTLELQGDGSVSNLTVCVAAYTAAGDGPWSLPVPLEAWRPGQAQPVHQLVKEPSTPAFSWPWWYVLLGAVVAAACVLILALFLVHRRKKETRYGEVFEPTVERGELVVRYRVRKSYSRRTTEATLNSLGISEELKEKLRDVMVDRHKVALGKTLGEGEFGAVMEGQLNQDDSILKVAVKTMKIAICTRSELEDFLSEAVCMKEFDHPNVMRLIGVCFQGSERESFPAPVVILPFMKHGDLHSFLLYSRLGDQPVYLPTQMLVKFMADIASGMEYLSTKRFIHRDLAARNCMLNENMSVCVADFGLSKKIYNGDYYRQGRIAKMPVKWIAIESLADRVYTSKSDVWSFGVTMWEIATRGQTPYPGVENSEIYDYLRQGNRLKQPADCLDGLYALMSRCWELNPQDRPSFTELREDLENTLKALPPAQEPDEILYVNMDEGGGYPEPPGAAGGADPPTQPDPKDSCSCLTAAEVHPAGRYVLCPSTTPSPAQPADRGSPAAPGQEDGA
T12 sequence (Q9UQB9 whole entry): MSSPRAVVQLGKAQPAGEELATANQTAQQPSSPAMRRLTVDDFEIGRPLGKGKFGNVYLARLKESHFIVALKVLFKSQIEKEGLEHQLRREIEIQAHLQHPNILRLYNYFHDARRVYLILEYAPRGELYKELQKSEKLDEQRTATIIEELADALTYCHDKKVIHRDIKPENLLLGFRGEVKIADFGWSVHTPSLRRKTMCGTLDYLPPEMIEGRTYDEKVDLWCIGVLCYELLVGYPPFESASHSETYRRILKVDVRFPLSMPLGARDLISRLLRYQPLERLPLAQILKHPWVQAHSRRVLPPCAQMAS

With `CCSc1nc(NC)c2c(-c3cccc(NC(=O)Nc4cc(C(C)(C)C)nn4-c4ccc(C)cc4)c3)c[nH]c2n1` [Compound 32] the “Residual activity (% of control), CHK1” value (350 wild-type kinases [1]; Assay Conc. 1.0E-05 M) was 72 % of control, the “Residual activity (% of control), CHK1” value (350 wild-type kinases [1]; Assay Conc. 1.0E-06 M) was 110 % of control and the “Residual activity (% of control), CDK19/CycC” value (350 wild-type kinases [2]; Assay Conc. 1.0E-05 M) was 54 % of control. The “Residual activity (% of control), CDK19/CycC” value (350 wild-type kinases [2]; Assay Conc. 1.0E-06 M) was 97 % of control, the “Residual activity (% of control), CDK13/CycK” value (350 wild-type kinases [3]; Assay Conc. 1.0E-05 M) was 71 % of control and the “Residual activity (% of control), CDK13/CycK” value (350 wild-type kinases [3]; Assay Conc. 1.0E-06 M) was 83 % of control. For the same compound, the “Residual activity (% of control), ACVRL1” value (350 wild-type kinases [4]; Assay Conc. 1.0E-05 M) was 80 % of control, the “Residual activity (% of control), ACVRL1” value (350 wild-type kinases [4]; Assay Conc. 1.0E-06 M) was 97 % of control and the “Residual activity (% of control), CAMKK1” value (350 wild-type kinases [5]; Assay Conc. 1.0E-05 M) was 122 % of control. The “Residual activity (% of control), CAMKK1” value (350 wild-type kinases [5]; Assay Conc. 1.0E-06 M) was 114 % of control, the “Residual activity (% of control), CK2alpha1” value (350 wild-type kinases [6]; Assay Conc. 1.0E-05 M) was 82 % of control and the “Residual activity (% of control), CK2alpha1” value (350 wild-type kinases [6]; Assay Conc. 1.0E-06 M) was 102 % of control. For the same compound, the “Residual activity (% of control), BRSK2” value (350 wild-type kinases [7]; Assay Conc. 1.0E-05 M) was 84 % of control, the “Residual activity (% of control), BRSK2” value (350 wild-type kinases [7]; Assay Conc. 1.0E-06 M) was 103 % of control and the “Residual activity (% of control), ACK1” value (350 wild-type kinases [8]; Assay Conc. 1.0E-05 M) was 74 % of control. For the same compound, the “Residual activity (% of control), ACK1” value (350 wild-type kinases [8]; Assay Conc. 1.0E-06 M) was 90 % of control, the “Residual activity (% of control), CK1delta” value (350 wild-type kinases [9]; Assay Conc. 1.0E-05 M) was 85 % of control and the “Residual activity (% of control), CK1delta” value (350 wild-type kinases [9]; Assay Conc. 1.0E-06 M) was 98 % of control. The “Residual activity (% of control), ASK1” value (350 wild-type kinases [10]; Assay Conc. 1.0E-05 M) was 71 % of control, the “Residual activity (% of control), ASK1” value (350 wild-type kinases [10]; Assay Conc. 1.0E-06 M) was 103 % of control and the “Residual activity (% of control), CDC42BPA” value (350 wild-type kinases [11]; Assay Conc. 1.0E-05 M) was 111 % of control. For the same compound, the “Residual activity (% of control), CDC42BPA” value (350 wild-type kinases [11]; Assay Conc. 1.0E-06 M) was 122 % of control, the “Residual activity (% of control), AuroraC” value (350 wild-type kinases [12]; Assay Conc. 1.0E-05 M) was 77 % of control and the “Residual activity (% of control), AuroraC” value (350 wild-type kinases [12]; Assay Conc. 1.0E-06 M) was 105 % of control. For the same compound, the “Residual activity (% of control), AKT2” value (350 wild-type kinases [13]; Assay Conc. 1.0E-05 M) was 88 % of control, the “Residual activity (% of control), AKT2” value (350 wild-type kinases [13]; Assay Conc. 1.0E-06 M) was 117 % of control and the “Residual activity (% of control), CAMK4” value (350 wild-type kinases [14]; Assay Conc. 1.0E-05 M) was 100 % of control. The “Residual activity (% of control), CAMK4” value (350 wild-type kinases [14]; Assay Conc. 1.0E-06 M) was 113 % of control, the remaining activity at 1 µM (350 wild-type kinases [15]) was less than 50% and the “Residual activity (% of control), CDK2/CycA2” value (350 wild-type kinases [16]; Assay Conc. 1.0E-05 M) was 46 % of control. The “Residual activity (% of control), CDK2/CycA2” value (350 wild-type kinases [16]; Assay Conc. 1.0E-06 M) was 105 % of control, the “Residual activity (% of control), CDK2/CycD1” value (350 wild-type kinases [16]; Assay Conc. 1.0E-05 M) was 78 % of control and the “Residual activity (% of control), CDK2/CycD1” value (350 wild-type kinases [16]; Assay Conc. 1.0E-06 M) was 110 % of control. The “Residual activity (% of control), CDK2/CycE1” value (350 wild-type kinases [16]; Assay Conc. 1.0E-05 M) was 58 % of control, the “Residual activity (% of control), CDK2/CycE1” value (350 wild-type kinases [16]; Assay Conc. 1.0E-06 M) was 103 % of control and the “Residual activity (% of control), DAPK3” value (350 wild-type kinases [17]; Assay Conc. 1.0E-05 M) was 82 % of control. The “Residual activity (% of control), DAPK3” value (350 wild-type kinases [17]; Assay Conc. 1.0E-06 M) was 98 % of control, the “Residual activity (% of control), ARK5” value (350 wild-type kinases [18]; Assay Conc. 1.0E-05 M) was 99 % of control and the “Residual activity (% of control), ARK5” value (350 wild-type kinases [18]; Assay Conc. 1.0E-06 M) was 105 % of control. The “Residual activity (% of control), BMX” value (350 wild-type kinases [19]; Assay Conc. 1.0E-05 M) was 68 % of control, the “Residual activity (% of control), BMX” value (350 wild-type kinases [19]; Assay Conc. 1.0E-06 M) was 109 % of control and the “Residual activity (% of control), BUB1B” value (350 wild-type kinases [20]; Assay Conc. 1.0E-05 M) was 85 % of control. The “Residual activity (% of control), BUB1B” value (350 wild-type kinases [20]; Assay Conc. 1.0E-06 M) was 119 % of control, the “Residual activity (% of control), ALK” value (350 wild-type kinases [21]; Assay Conc. 1.0E-05 M) was 23 % of control and the “Residual activity (% of control), ALK” value (350 wild-type kinases [21]; Assay Conc. 1.0E-06 M) was 64 % of control. The “Residual activity (% of control), BRAF” value (350 wild-type kinases [22]; Assay Conc. 1.0E-05 M) was 65 % of control, the “Residual activity (% of control), BRAF” value (350 wild-type kinases [22]; Assay Conc. 1.0E-06 M) was 98 % of control and the “Residual activity (% of control), AXL” value (350 wild-type kinases [23]; Assay Conc. 1.0E-05 M) was 59 % of control. The “Residual activity (% of control), AXL” value (350 wild-type kinases [23]; Assay Conc. 1.0E-06 M) was 94 % of control, the “Residual activity (% of control), CDK12/CycK” value (350 wild-type kinases [24]; Assay Conc. 1.0E-05 M) was 87 % of control and the “Residual activity (% of control), CDK12/CycK” value (350 wild-type kinases [24]; Assay Conc. 1.0E-06 M) was 99 % of control.
